“And” between values parts separate entries of the source, which are not always exact repeats. Identical values can stand only once.
What was measured:
[1] = target: T1, human β3-adrenergic receptor (Homo sapiens, UniProt P13945); test: cAMP response (SPA kit) in CHO cells transfected with human β3 adrenergic receptor; assay type: cell-based; details: for EC50: CHO cells expressing human β3-AR, 10^-9 M to 10^-5 M, 30 min at 37° C., cAMP by SPA, read-out: EC50(β3); for IA(β3): maximal response of compound compared to maximal response of isoproterenol at 10^-5 M, CHO cells, human β3-AR
T1 construct: Full length β3 AR clones (402 amino acids) containing the last 6 amino acids of hβ3—AR are prepared; expressed in transfected cells; host or cells: CHO cells
T1 sequence (P13945 whole entry): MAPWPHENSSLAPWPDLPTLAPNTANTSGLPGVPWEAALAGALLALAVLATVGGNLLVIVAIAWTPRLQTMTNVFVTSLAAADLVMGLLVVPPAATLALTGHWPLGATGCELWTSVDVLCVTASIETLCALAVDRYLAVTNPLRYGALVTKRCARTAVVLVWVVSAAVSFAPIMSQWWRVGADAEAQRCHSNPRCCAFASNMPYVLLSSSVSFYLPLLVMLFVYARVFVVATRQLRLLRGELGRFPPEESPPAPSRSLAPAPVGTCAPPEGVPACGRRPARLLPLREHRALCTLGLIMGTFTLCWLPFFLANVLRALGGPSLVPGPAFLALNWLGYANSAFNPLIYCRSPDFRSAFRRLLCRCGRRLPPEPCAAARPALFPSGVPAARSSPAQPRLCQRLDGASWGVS

| Compound | EC50 [1] | IA(β3) [1] | melting point [°C] |
| --- | --- | --- | --- |
| O=C(NCc1ccc(F)cc1)N1CCC(Sc2ccc(CCNC[C@H](O)COc3ccc(O)cc3)cc2)CC1 [Example 42, 4-(4-{2-[(2S)-2-Hydroxy-3-(4-hydroxy-phenoxy)-propylamino]-ethyl}-phenylsulfanyl)-piperidine-1-carboxylic Acid-4-fluorobenzylamide] | 95 nM | 0.72 | 181 to 183 |
| CCc1ccc(CCNC(=O)N2CCC(Nc3ccc(CCNC[C@H](O)COc4ccc(O)cc4)cc3)CC2)cc1 [Example 30, 4-(4-{2-[(2S)-2-Hydroxy-3-(4-hydroxy-phenoxy)-propylamino]-ethyl}-phenylamino)-piperidine-1-carboxylic Acid [2-(4-ethyl-phenyl)-ethyl]-amide] | 34 nM and 49 nM and 22 nM and 98 nM | 1 and 0.87 and 0.84 and 0.65 | 79 to 81 |
| CS(=O)(=O)Nc1cc(OC[C@@H](O)CNCCc2ccc(NC3CCN(C(=O)NCc4cc(F)ccc4F)CC3)cc2)ccc1O [Example 50, 4-(4-{2-[(2S)-2-Hydroxy-3-(4-hydroxy-3-methanesulfonylamino-phenoxy)-propylamino]-ethyl}-phenylamino)-piperidine-1-carboxylic Acid 2,5-difluoro-benzylamide] |  | 1 | 103 to 108 |
| CCCCCCCCNC(=O)N1CCC(Nc2ccc(CCNC[C@H](O)COc3ccc(O)c4c3CCC(=O)N4)cc2)CC1 [Example 69, 4-(4-{2-[(2S)-2-Hydroxy-3-(8-hydroxy-2-oxo-1,2,3,4-tetrahydro-quinolin-5-yloxy)-propylamino]-ethyl}-phenylamino)-piperidine-1-carboxylicacid Octylamide] |  | 0.67 | 83 to 85 |
| Cc1ccsc1C(=O)N1CCC(Sc2ccc(CCNC[C@H](O)COc3ccc(O)cc3)cc2)CC1 [Example 106, [4-(4-{2-[(2S)-2-Hydroxy-3-(4-hydroxy-phenoxy)-propylamino]-ethyl}-phenylsulfanyl)-piperidin-1-yl]-(3-methyl-thiophen-2-yl)-methanone] | 127 nM | 0.79 | 135 to 144 |
| O=C([C@@H]1CCCN1S(=O)(=O)c1ccc(F)cc1)N1CCC(Nc2ccc(CCNC[C@H](O)COc3ccc(O)cc3)cc2)CC1 [Example 104, [(2S)-1-(4-Fluoro-benzenesulfonyl)-pyrrolidin-2-yl]-[4-(4-{2-[(2S)-2-hydroxy-3-(4-hydroxy-phenoxy)-propylamino]-ethyl}-phenylamino)-piperidin-1-yl]-methanone] | 85 nM | 0.97 | 87 to 89 |
| O=C(NCCCCCCCCF)N1CCC(Nc2ccc(CCNC[C@H](O)COc3ccc(O)cc3)cc2)CC1 [Example 55, N-(8-Fluorooctyl)-4-[4-(2-{[(2S)-2-hydroxy-3-(4-hydroxyphenoxy)propyl]amino}ethyl)anilino]-1-piperidinecarboxamide] | 171 nM | 1.07 | 148 to 150 |
| CCOC(=O)C1CCN(C(=O)N2CCC(Nc3ccc(CCNC[C@H](O)COc4ccc(O)cc4)cc3)CC2)CC1 [Example 61, 1-[4-(4-{2-[(2S)-2-Hydroxy-3-(4-hydroxy-phenoxy)-propylamino]-ethyl}-phenylamino)-piperidine-1-carbonyl]-piperidine-4-carboxylic Acid Ethyl Ester] | 89 nM | 1.34 | 69 to 71 |
| O=C(OCc1ccc(F)cc1)N1CCC(Nc2ccc(CCNC[C@H](O)COc3ccc(O)cc3)cc2)CC1 [Example 121, 4-(4-{2-[(2S)-2-Hydroxy-3-(4-hydroxy-phenoxy)-propylamino]-ethyl}-phenylamino)-piperidine-1-carboxylic acid 4-fluoro-benzyl Ester] | 90 nM | 0.69 | 60 to 62 |
| O=C(c1cc2cccc([N+](=O)[O-])c2[nH]1)N1CCC(Nc2ccc(CCNC[C@H](O)COc3ccc(O)cc3)cc2)CC1 [Example 95, [4-(4-{2-[(2S)-2-Hydroxy-3-(4-hydroxy-phenoxy)-propylamino]-ethyl}-phenylamino)-piperidin-1-yl]-(7-nitro-1H-indol-2-yl)-methanone] | 66 nM | 0.9 | 100 to 102 |
| O=C(NCc1cc(F)ccc1F)N1CCC(Nc2ccc(CCNC[C@H](O)COc3ccc(O)cc3)cc2)CC1 [Example 37, 4-(4-{2-[(2S)-2-Hydroxy-3-(4-hydroxy-phenoxy)-propylamino]-ethyl}-phenylamino)-piperidine-1-carboxylic Acid 2,5-difluoro-benzylamide] |  | 0.92 | 69 to 72 |
| O=C(Nc1ccccc1)N1CCC(Sc2ccc(CCNC[C@H](O)COc3ccc(O)cc3)cc2)CC1 [Example 40, 4-(4-{2-[(2S)-2-Hydroxy-3-(4-hydroxy-phenoxy)-propylamino]-ethyl}-phenylsulfanyl)-piperidine-1-carboxylic Acid Phenylamide] | 101 nM | 0.9 | 121 |

Second part, the compound after the results:

| EC50 [1] | IA(β3) [1] | melting point [°C] | Compound |
| --- | --- | --- | --- |
| 9 nM | 1.08 | 90 to 92 | O=C(c1c[nH]c2ccccc12)N1CCC(Nc2ccc(CCNC[C@H](O)COc3ccc(O)cc3)cc2)CC1 [Example 99, [4-(4-{2-[(2S)-2-Hydroxy-3-(4-hydroxy-phenoxy)-propylamino]-ethyl}-phenylamino)-piperidin-1-yl]-(1H-indol-3-yl)-methanone] |
| 1 nM | 0.82 | 93 to 97 | CCOC(=O)C1CCN(C(=O)N2CCC(Nc3ccc(CCNC[C@H](O)c4ccc(O)c(NS(C)(=O)=O)c4)cc3)CC2)CC1 [Example 51, 1-[4-(4-{2-[(2R)-2-Hydroxy-2-(4-hydroxy-3-methanesulfonylamino-phenyl)-ethylamino]-ethyl}-phenylamino)-piperidine-1-carbonyl]-piperidine-4-carboxylic Acid Ethyl Ester] |
| 10 nM | 0.76 | 85 to 89 | Cc1ccc(C(=O)CCNC(=O)N2CCC(Nc3ccc(CCNC[C@H](O)COc4ccc(O)cc4)cc3)CC2)cc1 [Example 28] |
| 64 nM | 0.87 | 87 to 91 | COc1cccc(CNC(=O)N2CCC(Nc3ccc(CCNC[C@H](O)COc4ccc(O)cc4)cc3)CC2)c1OC [Example 25, 4-(4-{2-[(2S)-2-Hydroxy-3-(4-hydroxy-phenoxy)-propylamino]-ethyl}-phenylamino)-piperidine-1-carboxylic Acid 2,3-dimethoxy-benzylamide] |
| 8 nM | 1.03 | 118 to 120 | CS(=O)(=O)Nc1cc([C@@H](O)CNCCc2ccc(NC3CCN(c4ccc(S(=O)(=O)N5CCCCC5)cc4)CC3)cc2)ccc1O [Example 119] |
| 36 nM | 0.9 | 73 to 77 | O=C(NCc1ccc(F)cc1)N1CCC(Nc2ccc(OCCNC[C@H](O)COc3ccc(O)cc3)cc2)CC1 [Example 39, 4-(4-{2-[(2S)-2-Hydroxy-3-(4-hydroxy-phenoxy)-propylamino]-ethoxy}-phenylamino)-piperidine-1-carboxylic Acid 4-fluoro-benzylamide] |
| 12 nM | 0.45 | 113 to 115 | CCCCCCCCNC(=O)N1CCC(Nc2ccc(CCNC[C@H](O)COc3cccc4[nH]c(=O)[nH]c34)cc2)CC1 [Example 60, 4-(4-{2-[(2S)-2-Hydroxy-3-(2-oxo-2,3-dihydro-1H-benzoimidazol-4-yloxy)-propylamino]-ethyl}-phenylamino)-piperidine-1-carboxylic Acidoctylamide] |
| 55 nM | 0.78 | 83 to 86 | O=C(NCc1ccccc1C(F)(F)F)N1CCC(Nc2ccc(CCNC[C@H](O)COc3ccc(O)cc3)cc2)CC1 [Example 33, 4-(4-{2-[(2S)-2-Hydroxy-3-(4-hydroxy-phenoxy)-propylamino]-ethyl}-phenylamino)-piperidine-1-carboxylic Acid 2-trifluoromethyl-benzylamide] |
| 40 nM | 0.84 | 89 to 95 | O=C(NCc1cc(F)cc(F)c1)N1CCC(Nc2ccc(CCNC[C@H](O)COc3ccc(O)cc3)cc2)CC1 [Example 24, 4-(4-{2-[(2S)-2-Hydroxy-3-(4-hydroxy-phenoxy)-propylamino]-ethyl}-phenylamino)-piperidine-1-carboxylic Acid 3,5-difluoro-benzylamide] |
| 29 nM | 0.92 | 141 to 143 | CCCCCCNC(=O)Nc1ccc(CNC(=O)N2CCC(Nc3ccc(CCNC[C@H](O)COc4ccc(O)cc4)cc3)CC2)cc1 [Example 67, 4-(4-{2-[(2S)-2-Hydroxy-3-(4-hydroxy-phenoxy)-propylamino]-ethyl}-phenylamino)-piperidine-1-carboxylic Acid 4-(3-hexyl-ureido)-benzylamide] |
| 34 nM | 0.91 | 73 to 77 | O=C(NCCc1ccc(F)cc1)N1CCC(Nc2ccc(CCNC[C@H](O)COc3ccc(O)cc3)cc2)CC1 [Example 15, 4-(4-{2-[(2S)-2-Hydroxy-3-(4-hydroxy-phenoxy)-propylamino]-ethyl}-phenylamino)-piperidine-1-carboxylic Acid [2-(4-fluoro-phenyl)-ethyl]-amide] |
| 1 nM | 1.1 | 134 to 136 | CCCCCCCCNC(=O)Nc1ccc(S(=O)(=O)N2CCC(Nc3ccc(CCNC[C@H](O)c4ccc(O)c(NS(C)(=O)=O)c4)cc3)CC2)cc1 [Example 116, N-(2-Hydroxy-5-{(1R)-1-hydroxy-2-[2-(4-{1-[4-(3-octyl-ureido)-benzenesulfonyl]-piperidin-4-ylamino}-phenyl)-ethylamino]-ethyl}-phenyl)-methanesulfonamide] |

Source: US6451814B1, “Heterocyclic β-3 adrenergic receptor agonists” (Wyeth, priority 2000, dated 2002)
